Test [1] addresses Tt-CI (Tetrahymena thermophila complex I, in Tt-SC I+III2) (Tetrahymena thermophila, UniProt Q23KE4). Nature of the test: cryo-EM structure. It counts as binding. Conditions: 2.6 Å nominal resolution; native bound cofactor of the peripheral arm.
Test [2] concerns the target Tetrahymena thermophila complex III protomer (Tt-CIII) (Tetrahymena thermophila (endogenous)). Nature of the test: cryo-EM structure.

The record followed here is publication PMC9169680 (Science (New York, N.Y.), 2022).

Sequence of Tt-CI (Tetrahymena thermophila complex I, in Tt-SC I+III2) (Q23KE4 32-474): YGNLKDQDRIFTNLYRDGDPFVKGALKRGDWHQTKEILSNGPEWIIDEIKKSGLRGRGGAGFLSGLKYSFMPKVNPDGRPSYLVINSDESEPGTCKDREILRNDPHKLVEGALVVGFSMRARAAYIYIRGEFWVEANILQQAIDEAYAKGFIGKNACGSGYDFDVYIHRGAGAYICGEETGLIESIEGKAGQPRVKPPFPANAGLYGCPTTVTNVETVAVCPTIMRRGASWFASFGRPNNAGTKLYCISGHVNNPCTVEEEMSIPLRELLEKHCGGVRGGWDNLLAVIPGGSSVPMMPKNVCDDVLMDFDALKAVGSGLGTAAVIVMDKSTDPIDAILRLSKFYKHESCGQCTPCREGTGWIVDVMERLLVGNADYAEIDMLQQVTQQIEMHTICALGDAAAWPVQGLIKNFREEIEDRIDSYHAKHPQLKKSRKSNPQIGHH
Sequence of Tt-CI (Tetrahymena thermophila complex I, in Tt-SC I+III2) (Q951B1 1-442 partner): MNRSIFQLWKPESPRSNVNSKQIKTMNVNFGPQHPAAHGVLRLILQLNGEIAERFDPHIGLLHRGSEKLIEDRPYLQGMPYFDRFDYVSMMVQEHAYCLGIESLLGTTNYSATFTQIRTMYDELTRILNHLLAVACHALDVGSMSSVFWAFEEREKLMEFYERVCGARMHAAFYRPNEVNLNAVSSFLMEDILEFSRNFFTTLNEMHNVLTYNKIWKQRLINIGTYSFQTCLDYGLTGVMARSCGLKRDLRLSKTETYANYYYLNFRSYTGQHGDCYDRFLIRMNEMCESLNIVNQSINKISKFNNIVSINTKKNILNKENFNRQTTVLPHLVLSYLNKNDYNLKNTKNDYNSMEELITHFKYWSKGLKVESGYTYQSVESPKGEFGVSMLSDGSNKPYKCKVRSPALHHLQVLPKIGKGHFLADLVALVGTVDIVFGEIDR
Sequence of Tt-CI (Tetrahymena thermophila complex I, in Tt-SC I+III2) (Q951B4 1-162 partner): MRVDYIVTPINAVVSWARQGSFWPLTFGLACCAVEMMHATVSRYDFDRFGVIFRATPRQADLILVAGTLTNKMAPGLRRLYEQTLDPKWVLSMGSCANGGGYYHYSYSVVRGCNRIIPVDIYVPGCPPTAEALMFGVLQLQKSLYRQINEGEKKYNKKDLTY
Sequence of Tt-CI (Tetrahymena thermophila complex I, in Tt-SC I+III2) (Q950Z7 1-121 partner): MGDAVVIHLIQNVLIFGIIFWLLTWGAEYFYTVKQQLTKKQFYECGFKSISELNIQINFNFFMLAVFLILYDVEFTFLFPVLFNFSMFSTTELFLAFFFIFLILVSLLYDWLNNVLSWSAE

Regarding `Cc1cc2nc3c(=O)[nH]c(=O)nc-3n(C[C@H](O)[C@H](O)[C@H](O)COP(=O)(O)O)c2cc1C` [flavin mononucleotide], the cryo-EM structure result in test [1] is “relative locations of the flavin mononucleotide (FMN) co-factor and eight ironsulfur clusters”.

Consider “Tetrahymena thermophila complex III protomer (Tt-CIII)”, for which the stoichiometry N in test [2] is 2.

One may read the stoichiometry N as the number of molecules, sites or subunits per partner or assembly.
